This is an account of results in patent US7772252B2, “Heterocyclic substituted carbonyl derivatives and their use as dopamine D3 receptor ligands” (Aventis Pharmaceuticals Inc., priority 2001, dated 2010).

Read-outs that look alike come from different tables or passages of the source.

The target of the test is T1, cloned human dopamine D3 receptors (Homo sapiens, UniProt P35462).
T1 construct: expressed in transfected cells; membrane homogenate
Briefly: [N-Methyl-3H]Spiroperidol binding to cloned human dopamine D3 receptors. In a few lines: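 Stably transfected CHO cells expressing cloned human D3 receptor were used as membranes homogenized in 10% DMSO. Ligand was [N-methyl-3H]spiroperidol displacement.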

T1 sequence (P35462 whole entry): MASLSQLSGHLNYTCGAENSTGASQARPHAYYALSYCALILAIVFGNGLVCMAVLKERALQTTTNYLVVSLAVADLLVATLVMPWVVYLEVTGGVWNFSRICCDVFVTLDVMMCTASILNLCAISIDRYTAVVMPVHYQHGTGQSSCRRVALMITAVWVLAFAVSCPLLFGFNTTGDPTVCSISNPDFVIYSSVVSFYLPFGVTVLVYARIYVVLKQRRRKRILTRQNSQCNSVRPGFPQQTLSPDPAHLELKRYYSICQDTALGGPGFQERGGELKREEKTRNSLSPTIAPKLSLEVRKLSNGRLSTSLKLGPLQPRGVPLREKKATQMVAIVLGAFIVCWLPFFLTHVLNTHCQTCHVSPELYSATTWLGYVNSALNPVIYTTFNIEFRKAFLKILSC

As usually defined, the Ki is the equilibrium dissociation constant of an inhibitor or competing ligand from its target. With `Cc1ccc2c(c1)c(C1CCN(C[C@@H]3C[C@H]3C(=O)N3CCC[C@@H](Cn4ccnc4)C3)CC1)nn2C` [A002437354], the Ki (read-out: D3 Ki) worked out at 0.00103 µM.
With `CCC1CCC(NC(=O)C2CC2CN2CCN(c3nn(-c4ccc(C(F)(F)F)cc4)c4ccccc34)CC2)CC1` (racemic) [compound 830046], under “read-out: D3 Ki”, the Ki came out at 0.0165 µM.
The same measure, in the same setting: the same measure for `O=C(NC1CCN(Cc2cccc(F)c2F)CC1)C1CC1CN1CCC(c2noc3ccsc23)CC1` (racemic) [compound 832340]: 0.0115 µM.
As for `O=C(N[C@H]1CC[C@H](O)CC1)[C@@H]1C[C@H]1CN1CCN(c2nn(-c3ccc(OC(F)(F)F)cc3)c3ccsc23)CC1` [compound 833855], the Ki (read-out: D3 Ki) came out at 0.0124 µM.
Take `O=C([C@@H]1C[C@H]1CN1CCN(c2csc3cc(C(F)(F)F)ccc23)CC1)N1CCN(CCO)CC1` [compound 832735]: under “read-out: D3 Ki”, the Ki came out at 0.0368 µM.
Same read-out and setting: the same measure for `Cc1ccc(CCNC(=O)C2CC2CN2CCC(c3noc4ccsc34)CC2)cc1` (racemic) [compound 831803]: 0.00744 µM.
In the case of `O=C(C1CC1CN1CCC(c2noc3ccsc23)CC1)N1CCN(CC2CCCCC2)CC1` (racemic) [compound 832195], where the note is “read-out: D3 Ki”, the Ki is 0.0228 µM.
`CC1CCC(NC(=O)C2CC2CN2CCCN(c3noc4ccsc34)CC2)CC1` (racemic) [compound 830126]: the Ki (read-out: D3 Ki) turned out to be 0.0238 µM.
For `O=C(NCc1ccc2ccccc2c1)C1CC1CN1CCC(c2noc3ccsc23)CC1` (racemic) [compound 831454], the Ki (read-out: D3 Ki) is 0.00186 µM.
With `Cn1nc(C2CCN(C[C@@H]3C[C@H]3C(=O)NCC3CCNCC3)CC2)c2ccc(C(F)(F)F)cc21` [A002436288A], the Ki (read-out: D3 Ki) came to 0.106 µM.
For `O=C(NCCc1ccccc1)[C@@H]1C[C@H]1CN1CCC(c2noc3ccsc23)CC1` [compound 830829], the Ki (read-out: D3 Ki) was 0.0053 µM.
Take `COc1ccc2c(c1)c(N1CCN(C[C@@H]3C[C@H]3C(=O)N3CCC(n4ccnc4)CC3)CC1)nn2C` [compound 833123]: the Ki (read-out: D3 Ki) was 0.0263 µM.
On the same count and under the same terms, the same measure for `O=C([C@@H]1C[C@H]1CN1CCN(c2csc3cc(C(F)(F)F)ccc23)CC1)N1CCCC(CN2CCCNCC2)C1` (mixture of isomers) [A002437358]: 0.00886 µM.
In the case of `CCC1CCC(NC(=O)C2CC2CN2CCC(c3noc4cc(Cl)ccc34)CC2)CC1` (racemic) [compound 829363], the Ki (read-out: D3 Ki) came out at 0.0639 µM.
With `O=C(NCCc1c[nH]c2ccccc12)[C@@H]1C[C@H]1CN1CCC(c2noc3ccsc23)CC1` [compound 830830], the Ki (read-out: D3 Ki) came out at 0.00258 µM.
On to `CN1CCCN(C(=O)C2CC2CN2CCC(c3noc4ccsc34)CC2)CC1` (racemic) [compound 829597], for which the Ki (read-out: D3 Ki) was determined as 0.226 µM.
Regarding `CCC1CCC(NC(=O)C2CC2CN2CCC(Cc3ccccc3)CC2)CC1` (racemic) [compound 827248], for the setting “read-out: D3 Ki”, the Ki was found to be 0.0194 µM.
In the case of `O=C(NC1CCN(C(=O)Nc2ccc(Cl)cc2)CC1)C1CC1CN1CCC(c2noc3ccsc23)CC1` (racemic) [832575ES], the Ki (read-out: D3 Ki) was determined as 0.00406 µM.
On the same count and under the same terms, under `COc1ccc2c(c1)c(N1CCN(C[C@@H]3C[C@H]3C(=O)NCCCn3ccnc3)CC1)nn2-c1ccc(C(F)(F)F)cc1` [compound 831313] stands 0.134 µM.
Regarding `CC(C)(C)OC(=O)N1CCCCC1CCNC(=O)[C@@H]1C[C@H]1CN1CCC(c2noc3ccsc23)CC1` (mixture of isomers) [compound 832533], the Ki (read-out: D3 Ki) stood at 0.00412 µM.
Still for that read-out and setting: under `CCC1CCC(NC(=O)C2CC2CN2CCN(c3nn(-c4ccccc4)c4cc(F)ccc34)CC2)CC1` (racemic) [compound 830129] stands 0.00416 µM.
Take `CC(C)(C)OC(=O)N1CCCCC1CCNC(=O)[C@@H]1C[C@H]1CN1CCN(c2csc3cc(C(F)(F)F)ccc23)CC1` (mixture of isomers) [compound 832500]: the Ki (read-out: D3 Ki) was 0.161 µM.
Consider `CC[C@H]1CC[C@H](NC(=O)[C@@H]2C[C@H]2CN2CCN(c3nn(C)c4ccc(OC)cc34)CC2)CC1` [832747ES], for which the Ki (read-out: D3 Ki) is 0.00105 µM.
As to `O=C(N[C@H]1CC[C@H](O)CC1)[C@@H]1C[C@H]1CN1CCN(c2nn(-c3ccc(C(F)(F)F)cc3)c3ccsc23)CC1` [compound 832648], the Ki (read-out: D3 Ki) is 0.0208 µM.
Still for that read-out and setting: the same measure for `CC1CCCCN1CCCNC(=O)[C@@H]1C[C@H]1CN1CCN(c2csc3cc(C(F)(F)F)ccc23)CC1` (mixture of isomers) [compound 832578]: 0.0258 µM; for `O=C(C1CC1CN1CCC(c2noc3ccsc23)CC1)N1CCN(Cc2ccc(Cl)c(Cl)c2)CC1` (racemic) [compound 831390]: 0.000861 µM; for `CCC1CCC(NC(=O)C2CC2CN2CCCN(c3onc4c3CCc3ccc(OC)cc3-4)CC2)CC1` (racemic) [compound 830131]: 0.0341 µM.
The same measure, in the same setting: under `CC(=O)N1CCCCC1CCNC(=O)[C@@H]1C[C@H]1CN1CCN(c2csc3cc(C(F)(F)F)ccc23)CC1` (mixture of isomers) [compound 833064] stands 0.0288 µM; under `O=C(NCCc1c[nH]c2cc(F)ccc12)[C@@H]1C[C@H]1CN1CCC(c2noc3ccsc23)CC1` [compound 830831], 0.00319 µM; under `CCC1CCC(NC(=O)C2CC2CN2CCN(C(=O)OC(C)(C)C)CC2)CC1` (racemic) [compound 827223], 0.159 µM.
As for `O=C(NC1CCN(Cc2ccccc2Cl)CC1)[C@@H]1C[C@H]1CN1CCN(c2csc3cc(C(F)(F)F)ccc23)CC1` [compound 832741], the Ki (read-out: D3 Ki) was 0.00603 µM.
For the compound `O=C(C1CC1CN1CCC(c2noc3ccsc23)CC1)N1CCN(c2ncccn2)CC1` (racemic) [compound 827394], under “read-out: D3 Ki”, the Ki was found to be 0.391 µM.
On to `O=C(NC1CCN(Cc2ccc(F)cc2)CC1)[C@@H]1C[C@H]1CN1CCC(c2noc3ccsc23)CC1` [compound 832732], for which, where the note is “read-out: D3 Ki”, the Ki is 0.00074 µM.
The same measure, in the same setting: under `O=C(NC1CCN(Cc2cc(Cl)ccc2Cl)CC1)C1CC1CN1CCC(c2noc3ccsc23)CC1` (racemic) [compound 832347] stands 0.00188 µM.
Regarding `CC1CCC(NC(=O)C2CC2CN2CCC(n3c(=O)[nH]c4ccccc43)CC2)CC1` (racemic) [compound 827211], the Ki (read-out: D3 Ki) was determined as 0.353 µM.
As to `O=C(NC1CCN(CC2CCCCC2)CC1)[C@@H]1C[C@H]1CN1CCC(c2noc3ccsc23)CC1` [compound 832733], for the setting “read-out: D3 Ki”, the Ki is 0.000656 µM.
Regarding `O=C(NC1CCN(Cc2ccc(F)c(F)c2)CC1)[C@@H]1C[C@H]1CN1CCN(c2csc3cc(C(F)(F)F)ccc23)CC1` [compound 833512], the Ki (read-out: D3 Ki) worked out at 0.00217 µM.
In the case of `O=C(NCCS(=O)(=O)c1cccc2cnccc12)C1CC1CN1CCC(c2noc3ccsc23)CC1` (racemic) [compound 832044], for the setting “read-out: D3 Ki”, the Ki stood at 0.657 µM.
As to `O=C(NCCCN1CCCCC1)[C@@H]1C[C@H]1CN1CCC(c2cc3ccccc3s2)CC1` [compound 832714], for the setting “read-out: D3 Ki”, the Ki is 0.0124 µM.
Turning to `O=C(NC1CCN(c2ncccc2C(F)(F)F)C1)C1CC1CN1CCC(c2noc3ccsc23)CC1` (racemic) [compound 832199], the Ki (read-out: D3 Ki) was found to be 0.0187 µM.
Consider `O=C(NCCc1cccs1)C1CC1CN1CCC(c2noc3ccsc23)CC1` (racemic) [compound 831385], for which, for the setting “read-out: D3 Ki”, the Ki came to 0.0227 µM.
As for `COc1cccc(C(=O)NNC(=O)C2CC2CN2CCC(c3noc4ccsc34)CC2)c1` (racemic) [compound 831811], where the note is “read-out: D3 Ki”, the Ki was 0.819 µM.
For the compound `COc1ccc2c(c1)c(N1CCN(C[C@@H]3C[C@H]3C(=O)NCCCn3ccnc3)CC1)nn2C` [compound 831808], under “read-out: D3 Ki”, the Ki turned out to be 0.00384 µM.
In the case of `CN1CCN(CCCNC(=O)[C@@H]2C[C@H]2CN2CCC(c3nn(C)c4c(C(F)(F)F)cccc34)CC2)CC1` [A002439259], the Ki (read-out: D3 Ki) came to 0.0391 µM.
Same read-out and setting: the same measure for `O=C(NCCc1cccnc1)C1CC1CN1CCC(c2noc3ccsc23)CC1` (racemic) [compound 831456]: 0.00621 µM; for `O=C(NCCCn1ccnc1)[C@@H]1C[C@H]1CN1CCC(c2noc3ccsc23)CC1` [compound 829596]: 0.00441 µM.
As to `COc1cccc(CCNC(=O)C2CC2CN2CCC(c3noc4ccsc34)CC2)c1` (racemic) [compound 831804], the Ki (read-out: D3 Ki) came out at 0.00989 µM.
For the compound `O=C(NCCCN1CCCCC1)[C@@H]1C[C@H]1CN1CCN(c2csc3ncccc23)CC1` [A002437094], where the note is “read-out: D3 Ki”, the Ki turned out to be 0.0919 µM.
With `COc1cccc2c(C3CCN(C[C@@H]4C[C@H]4C(=O)N4CCC[C@@H](Cn5ccnc5)C4)CC3)noc12` [A002437359, (3S-Imidazol-1-ylmethyl-piperidin-1-yl)-{2R-[4-(7-methoxy-benzo[d]isoxazol-3-yl)-piperidin-1-ylmethyl]-1R-cyclopropyl}-methanone], the Ki (read-out: D3 Ki) was 0.000541 µM.
For `COc1c(F)ccc2c(C3CCN(C[C@@H]4C[C@H]4C(=O)N[C@H]4CC[C@H](O)CC4)CC3)noc12` [compound 831952], the Ki (read-out: D3 Ki) came to 0.0428 µM.
Same read-out and setting: under `O=C(NCCCN1CCCCC1)[C@@H]1C[C@H]1CN1CCC(c2nn(-c3ccc(F)cc3)c3cc(F)ccc23)CC1` [compound 833157] stands 0.0439 µM; under `O=C(NC1CCCC1)C1CC1CN1CCC(c2noc3ccsc23)CC1` (racemic) [compound 829592], 0.0423 µM.
Regarding `O=C(N[C@H]1CC[C@H](O)CC1)[C@@H]1C[C@H]1CN1CCC(c2noc3c(C(F)(F)F)cccc23)CC1` [compound 832271], the Ki (read-out: D3 Ki) was 0.112 µM.
Consider `O=C([C@@H]1C[C@H]1CN1CCN(c2csc3cc(C(F)(F)F)ccc23)CC1)N1CCC(Nc2ccc(Cl)cc2)CC1` [compound 832495], for which, under “D3 Ki”, the Ki was 0.0636 µM.
For the compound `Cc1ccc(S(=O)(=O)n2nc(N3CCN(C[C@@H]4C[C@H]4C(=O)N[C@H]4CC[C@H](O)CC4)CC3)c3sccc32)cc1` [compound 831951], for the setting “read-out: D3 Ki”, the Ki was 0.0367 µM.
Take `CN1CCN(CCCNC(=O)[C@@H]2C[C@H]2CN2CCC(c3nsc4cc(Br)ccc34)CC2)CC1` [A002438664]: the Ki (read-out: D3 Ki) turned out to be 0.00649 µM.
In the case of `O=C([C@@H]1C[C@H]1CN1CCC(c2cc3ccccc3s2)CC1)N1CCC(N2CCCC2)CC1` [compound 832715], the Ki (read-out: D3 Ki) turned out to be 0.166 µM.
As for `O=C(NC1CCN(Cc2ccc(Cl)c(Cl)c2)CC1)[C@@H]1C[C@H]1CN1CCC(c2noc3ccsc23)CC1` [compound 832731], for the setting “read-out: D3 Ki”, the Ki was determined as 0.000699 µM.
For the compound `O=C(NC1CCN(Cc2cccc(Cl)c2)CC1)[C@@H]1C[C@H]1CN1CCN(c2csc3cc(C(F)(F)F)ccc23)CC1` [compound 832740], under “read-out: D3 Ki”, the Ki was determined as 0.0302 µM.
For `C[C@H]1CC[C@H](NC(=O)[C@@H]2C[C@H]2CN2CCN(c3csc4ncccc34)CC2)CC1` [compound 833700], the Ki (read-out: D3 Ki) amounted to 0.00324 µM.
